Test results: patent publication US6689790B2, “Substituted triazolopyridine compounds” (Hoffmann-La Roche Inc., priority 2001, dated 2004)

biological target: T1, human adenosine A2A receptor (Homo sapiens, UniProt P29274); test: [3H]-SCH-58261 binding assay, human adenosine A2A receptor (CHO cell membranes, SPA); conditions: [3H]-SCH-58261 displacement; list of examples 10-108; read-out: hA2a Ki
T1 construct: expressed in transfected cells; host or cells: CHO cells, semliki forest virus expression system; washed membranes
T1 sequence (P29274 whole entry): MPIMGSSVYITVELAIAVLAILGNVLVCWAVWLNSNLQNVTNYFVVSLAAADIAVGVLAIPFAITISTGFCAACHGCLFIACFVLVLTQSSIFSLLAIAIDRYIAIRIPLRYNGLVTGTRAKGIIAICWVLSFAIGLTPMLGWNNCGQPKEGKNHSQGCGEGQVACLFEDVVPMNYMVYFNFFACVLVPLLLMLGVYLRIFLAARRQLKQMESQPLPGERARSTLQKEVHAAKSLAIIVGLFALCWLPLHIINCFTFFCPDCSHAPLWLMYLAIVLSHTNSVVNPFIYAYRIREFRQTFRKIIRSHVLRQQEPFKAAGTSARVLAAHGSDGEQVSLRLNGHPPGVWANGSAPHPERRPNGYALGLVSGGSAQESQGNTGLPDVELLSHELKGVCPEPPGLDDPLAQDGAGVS
Description: Human Adenosine A2A Receptor
The human adenosine A2A receptor was recombinantly expressed in chinese hamster ovary (CHO) cells using the semliki forest virus expression system. Cells were harvested, washed twice by centrifugation, homogenized and again washed by centrifugation. The final washed membrane pellet was suspended in a Tris (50 mM) buffer containing 120 mM NaCl, 5 mM KCl, 2 mM CaCl2 and 10 mM MgCl2 (pH 7.4) (buffer A). […] Compounds were tested at 10 concentrations from 10 μM-0.3 nM. All assays were conducted in duplicate and repeated at least two times. Assay plates were incubated for 1 hour at room temperature before centrifugation and then bound ligand determined using a Packard Topcount scintillation counter. IC50 values were calculated using a non-linear curve fitting program and Ki values calculated using the Cheng-Prussoff equation.

Structure (SMILES)	Ki
CC1CCCCN1C(=O)c1cc(N)c2nc(-c3ccccc3)nn2c1 (stereo not shown) [Example 72, (8-Amino-2-phenyl-[1,2,4]triazolo[1,5-a]pyridin-6-yl)-(2-methyl-piperidin-1-yl)-methanone]	361 nM
CCN(CC)C(=O)C1CCCN(C(=O)c2cc(N)c3nc(-c4ccccc4)nn3c2)C1 (stereo not shown) [Example 73, 1-(8-Amino-2-phenyl-[1,2,4]triazolo[1,5-a]pyridine-6-carbonyl)-piperidine-3-carboxylic acid diethylamide]	998 nM
COC[C@@H]1CCCN1C(=O)c1cc(N)c2nc(-c3ccccc3)nn2c1 [Example 74, (8-Amino-2-phenyl-[1,2,4]triazolo[1,5-a]pyridin-6-yl)-(2-methoxymethyl-pyrrolidin-1-yl)-methanone]	196 nM
CN(C)C(=O)[C@@H]1CCCN1C(=O)c1cc(N)c2nc(-c3ccccc3)nn2c1 [Example 76, 1-(8-Amino-2-phenyl-[1,2,4]triazolo[1,5-a]pyridine-6-carbonyl)-pyrrolidine-2-carboxylic acid dimethylamide]	420 nM
CN(C)C(=O)CN(C)C(=O)c1cc(N)c2nc(-c3ccccc3)nn2c1 [Example 77, 8-Amino-2-phenyl-[1,2,4]triazolo[1,5-a]pyridine-6-carboxylic acid dimethylcarbamoyl-methyl-methyl-amide]	674 nM
CC1CCCN(C(=O)c2cc(N)c3nc(-c4ccccc4)nn3c2)C1 (stereo not shown) [Example 78, (8-Amino-2-phenyl-[1,2,4]triazolo[1,5-a]pyridin-6-yl)-(3-methyl-piperidin-1-yl)-methanone]	385 nM
CCCN(C)C(=O)c1cc(N)c2nc(-c3ccccc3)nn2c1 [Example 79, 8-Amino-2-phenyl-[1,2,4]triazolo[1,5-a]pyridine-6-carboxylic acid methyl-propyl-amide]	886 nM
Nc1cc(C(=O)N2CC=CCC2)cn2nc(-c3ccccc3)nc12 [Example 80, (8-Amino-2-phenyl-[1,2,4]triazolo[1,5-a]pyridin-6-yl)-(3,6-dihydro-2H-pyridin-1-yl)-methanone]	289 nM
CN(CCc1ccccc1)C(=O)c1cc(N)c2nc(-c3ccccc3)nn2c1 [Example 81, 8-Amino-2-phenyl-[1,2,4]triazolo[1,5-a]pyridine-6-carboxylic acid methyl-phenethyl-amide]	524 nM
CCN(CC)C(=O)c1cc(N)c2nc(-c3ccc(C)o3)nn2c1 [Example 82, 8-Amino-2-(5-methyl-furan-2-yl)-[1,2,4]triazolo[1,5-a]pyridine-6-carboxylic acid diethylamide]	131 nM
CCN(CCOC)C(=O)c1cc(N)c2nc(-c3ccc(C)o3)nn2c1 [Example 87, 8-Amino-2-(5-methyl-furan-2-yl)-[1,2,4]triazolo[1,5-a]pyridine-6-carboxylic acid ethyl-(2-methoxy-ethyl)-amide]	104 nM
CCCN(C)C(=O)c1cc(N)c2nc(-c3ccc(C)o3)nn2c1 [Example 89, 8-Amino-2-(5-methyl-furan-2-yl)-[1,2,4]triazolo[1,5-a]pyridine-6-carboxylic acid methyl-propyl-amide]	178 nM
Cc1ccc(-c2nc3c(N)cc(C(=O)N4CCSCC4)cn3n2)o1 [Example 90, [8-Amino-2-(5-methyl-furan-2-yl)-[1,2,4]triazolo[1,5-a]pyridin-6-yl]-thiomorpholin-4-yl-methanone]	140 nM
Cc1ccc(-c2nc3c(N)cc(C(=O)N(C)CCc4ccccc4)cn3n2)o1 [Example 91, 8-Amino-2-(5-methyl-furan-2-yl)-[1,2,4]triazolo[1,5-a]pyridine-6-carboxylic acid methyl-phenethyl-amide]	112 nM
Cc1ccc(-c2nc3c(N)cc(C(=O)N4CC(C)OC(C)C4)cn3n2)o1 (stereo not shown) [Example 92, [8-Amino-2-(5-methyl-furan-2-yl)-[1,2,4]triazolo[1,5-a]pyridin-6-yl]-(2,6-dimethyl-morpholin-4-yl)-methanone]	249 nM
CCN(CC)C(=O)c1cc(N)c2nc(-c3ccc(C)s3)nn2c1 [Example 93, 8-Amino-2-(5-methyl-thiophen-2-yl)-[1,2,4]triazolo[1,5-a]pyridine-6-carboxylic acid diethylamide]	322 nM
Cc1ccc(-c2nc3c(N)cc(C(=O)N4CCCC4)cn3n2)s1 [Example 94, [8-Amino-2-(5-methyl-thiophen-2-yl)-[1,2,4]triazolo[1,5-a]pyridin-6-yl]-pyrrolidin-1-yl-methanone]	213 nM
Cc1ccc(-c2nc3c(N)cc(C(=O)N4CCCCC4)cn3n2)s1 [Example 95, [8-Amino-2-(5-methyl-thiophen-2-yl)-[1,2,4]triazolo[1,5-a]pyridin-6-yl]-piperidin-1-yl-methanone]	225 nM
Cc1ccc(-c2nc3c(N)cc(C(=O)N4CCCC4C)cn3n2)s1 (stereo not shown) [Example 96, [8-Amino-2-(5-methyl-thiophen-2-yl)-[1,2,4]triazolo[1,5-a]pyridin-6-yl]-(2-methyl-pyrrolidin-1-yl)-methanone]	154 nM
Cc1ccc(-c2nc3c(N)cc(C(=O)N(C)CC(=O)N(C)C)cn3n2)s1 [Example 98, 8-Amino-2-(5-methyl-thiophen-2-yl)-[1,2,4]triazolo[1,5-a]pyridine-6-carboxylic acid dimethylcarbamoyl-methyl-methyl-amide]	220 nM
CCN(CCOC)C(=O)c1cc(N)c2nc(-c3ccc(C)s3)nn2c1 [Example 99, 8-Amino-2-(5-methyl-thiophen-2-yl)-[1,2,4]triazolo[1,5-a]pyridine-6-carboxylic acid ethyl-(2-methoxy-ethyl)-amide]	238 nM
Cc1ccc(-c2nc3c(N)cc(C(=O)N4CCCC(C)C4)cn3n2)s1 (stereo not shown) [Example 100, [8-Amino-2-(5-methyl-thiophen-2-yl)-[1,2,4]triazolo[1,5-a]pyridin-6-yl]-(3-methyl-piperidin-1-yl)-methanone]	178 nM
CCCN(C)C(=O)c1cc(N)c2nc(-c3ccc(C)s3)nn2c1 [Example 101, 8-Amino-2-(5-methyl-thiophen-2-yl)-[1,2,4]triazolo[1,5-a]pyridine-6-carboxylic acid methyl-propyl-amide]	228 nM
Cc1ccc(-c2nc3c(N)cc(C(=O)N4CCSCC4)cn3n2)s1 [Example 102, [8-Amino-2-(5-methyl-thiophen-2-yl)-[1,2,4]triazolo[1,5-a]pyridin-6-yl]-thiomorpholin-4-yl-methanone]	478 nM
Cc1ccc(-c2nc3c(N)cc(C(=O)N(C)CCc4ccccc4)cn3n2)s1 [Example 103, 8-Amino-2-(5-methyl-thiophen-2-yl)-[1,2,4]triazolo[1,5-a]pyridine-6-carboxylic acid methyl-phenethyl-amide]	309 nM
Nc1cc(C(=O)N2CCCC2)cn2nc(-c3nccs3)nc12 [Example 104, (8-Amino-2-thiazol-2-yl-[1,2,4]triazolo[1,5-a]pyridin-6-yl)-pyrrolidin-1-yl-methanone]	564 nM
CC1CCCN1C(=O)c1cc(N)c2nc(-c3nccs3)nn2c1 (stereo not shown) [Example 105, (8-Amino-2-thiazol-2-yl-[1,2,4]triazolo[1,5-a]pyridin-6-yl)-(2-methyl-pyrrolidin-1-yl)-methanone]	654 nM
CCCCN(C)C(=O)c1cc(N)c2nc(-c3nccs3)nn2c1 [Example 106, 8-Amino-2-thiazol-2-yl-[1,2,4]triazolo[1,5-a]pyridine-6-carboxylic acid butyl-methyl-amide]	844 nM
CC1CCCN(C(=O)c2cc(N)c3nc(-c4nccs4)nn3c2)C1 (stereo not shown) [Example 107, (8-Amino-2-thiazol-2-yl-[1,2,4]triazolo[1,5-a]pyridin-6-yl)-(3-methyl-piperidin-1-yl)-methanone]	632 nM
CN(CCc1ccccc1)C(=O)c1cc(N)c2nc(-c3nccs3)nn2c1 [Example 108, 8-Amino-2-thiazol-2-yl-[1,2,4]triazolo[1,5-a]pyridine-6-carboxylic acid methyl-phenethyl-amide]	988 nM

biological target: T2, hA1 (Homo sapiens, UniProt P30542); test: hA1 receptor affinity (Ki); assay type: binding; conditions: list of examples 10-108
T2 sequence (P30542 1-326): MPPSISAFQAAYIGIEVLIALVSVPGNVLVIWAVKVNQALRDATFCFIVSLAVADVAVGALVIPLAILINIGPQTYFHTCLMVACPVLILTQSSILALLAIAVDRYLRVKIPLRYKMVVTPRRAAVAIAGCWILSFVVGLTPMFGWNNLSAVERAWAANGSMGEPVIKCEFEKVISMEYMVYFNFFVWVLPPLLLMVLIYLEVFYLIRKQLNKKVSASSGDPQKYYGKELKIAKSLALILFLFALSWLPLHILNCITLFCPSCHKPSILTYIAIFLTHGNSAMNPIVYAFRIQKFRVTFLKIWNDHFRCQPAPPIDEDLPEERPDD

Structure (SMILES)	Ki
COCC1CCCN1C(=O)c1cc(N)c2nc(-c3ccc(Br)o3)nn2c1 (stereo in doubt) [Example 17, [8-Amino-2-(5-bromo-furan-2-yl)-[1,2,4]triazolo[1,5-a]pyridin-6-yl]-((S)-2-methoxymethyl-pyrrolidin-1-yl)-methanone]	1230 nM
CCN(CC)C(=O)c1cc(N)c2nc(-c3ccc(Br)o3)nn2c1 [Example 10, 8-Amino-2-(5-bromo-furan-2-yl)-[1,2,4]triazolo[1,5-a]pyridine-6-carboxylic acid diethylamide]	2260 nM
Nc1cc(C(=O)N2CCCC2)cn2nc(-c3ccc(Br)o3)nc12 [Example 11, [8-Amino-2-(5-bromo-furan-2-yl)-[1,2,4]triazolo[1,5-a]pyridin-6-yl]-pyrrolidin-1-yl-methanone]	1270 nM
CC1CCCN1C(=O)c1cc(N)c2nc(-c3ccc(Br)o3)nn2c1 (stereo not shown) [Example 12, [8-Amino-2-(5-bromo-furan-2-yl)-[1,2,4]triazolo[1,5-a]pyridin-6-yl]-(2-methyl-pyrrolidin-1-yl)-methanone]	1120 nM
